pIC50: −log10 of the molar value.
Assays:
Influenza A virus = experiment: Antiviral activity against Influenza A virus (A/Puerto Rico/8/34(H1N1)) infected in MDCK cells assessed as inhibition of virus induced cytopathicity after 48 hrs; format: functional, organism-based; conditions: A/Puerto Rico/8/1934(H1N1)
RAW264.7 = experiment: Inhibition of LPS-induced NFkappaB expression in mouse RAW264.7 cells at 0.1 uM pretreated for 4 hrs before LPS challenge measured after 24 hrs by luciferase reporter gene assay relative to control; format: cell-based
[1] = Inhibition of LPS-induced NFkappaB expression in mouse RAW264.7 cells pretreated for 4 hrs before LPS challenge measured after 24 hrs by luciferase reporter gene assay relative to control; format: cell-based

| SMILES | pIC50 (Influenza A virus) | inhibition (RAW264.7) [%] | pIC50 [1] |
| --- | --- | --- | --- |
| NC(=O)c1ncn([C@@H]2O[C@H](CO)[C@@H](O)[C@H]2O)n1 [RIBAVIRIN] | 3.94 | – | – |
| S=C(S)N1CCCC1 | – | 85 | – |
| CCC(C)CC(C)/C=C(/C=C(C)\C=C\C=C\C=C\C=C\C=C\c1cc(O)c([C@@H]2O[C@H](CO)[C@H](O)[C@H](O)[C@H]2O)c(=O)o1)C(=O)O (stereo partly specified) | 4.04 | – | 4.40 |
| CCC(C)CC(C)/C=C(/C=C(C)/C=C/C=C/C=C/C=C/C=C/c1cc(O)c([C@@H]2O[C@H](CO)[C@H](O)[C@H](O)[C@H]2O)c(=O)o1)C(=O)O (stereo partly specified) | 3.99 | – | 4.30 |

Reference: ChEMBL document CHEMBL2016569, “Pyronepolyene C-glucosides with NF-κB inhibitory and anti-influenza A viral (H1N1) activities from the sponge-associated fungus Epicoccum sp. JJY40” (Bioorg Med Chem Lett, 2012)
